Results as given in PMC10140010 (Investigational New Drugs, 2023).
Several values for one entry are separate records, joined by “and”; a condition that tells them apart may be missing. Equal entries are not always repeated.

Experiments:
EPHA2 = EPHA2 (Homo sapiens, UniProt P29317); assay: Z'-LYTE kinase selectivity; format: biochemical
INSR = INSR (Homo sapiens, UniProt P06213); assay: Z'-LYTE kinase selectivity; format: biochemical
KDR = KDR (Homo sapiens, UniProt P35968); assay: Z'-LYTE kinase selectivity; format: biochemical
Sequence of KDR (P35968 20-1356): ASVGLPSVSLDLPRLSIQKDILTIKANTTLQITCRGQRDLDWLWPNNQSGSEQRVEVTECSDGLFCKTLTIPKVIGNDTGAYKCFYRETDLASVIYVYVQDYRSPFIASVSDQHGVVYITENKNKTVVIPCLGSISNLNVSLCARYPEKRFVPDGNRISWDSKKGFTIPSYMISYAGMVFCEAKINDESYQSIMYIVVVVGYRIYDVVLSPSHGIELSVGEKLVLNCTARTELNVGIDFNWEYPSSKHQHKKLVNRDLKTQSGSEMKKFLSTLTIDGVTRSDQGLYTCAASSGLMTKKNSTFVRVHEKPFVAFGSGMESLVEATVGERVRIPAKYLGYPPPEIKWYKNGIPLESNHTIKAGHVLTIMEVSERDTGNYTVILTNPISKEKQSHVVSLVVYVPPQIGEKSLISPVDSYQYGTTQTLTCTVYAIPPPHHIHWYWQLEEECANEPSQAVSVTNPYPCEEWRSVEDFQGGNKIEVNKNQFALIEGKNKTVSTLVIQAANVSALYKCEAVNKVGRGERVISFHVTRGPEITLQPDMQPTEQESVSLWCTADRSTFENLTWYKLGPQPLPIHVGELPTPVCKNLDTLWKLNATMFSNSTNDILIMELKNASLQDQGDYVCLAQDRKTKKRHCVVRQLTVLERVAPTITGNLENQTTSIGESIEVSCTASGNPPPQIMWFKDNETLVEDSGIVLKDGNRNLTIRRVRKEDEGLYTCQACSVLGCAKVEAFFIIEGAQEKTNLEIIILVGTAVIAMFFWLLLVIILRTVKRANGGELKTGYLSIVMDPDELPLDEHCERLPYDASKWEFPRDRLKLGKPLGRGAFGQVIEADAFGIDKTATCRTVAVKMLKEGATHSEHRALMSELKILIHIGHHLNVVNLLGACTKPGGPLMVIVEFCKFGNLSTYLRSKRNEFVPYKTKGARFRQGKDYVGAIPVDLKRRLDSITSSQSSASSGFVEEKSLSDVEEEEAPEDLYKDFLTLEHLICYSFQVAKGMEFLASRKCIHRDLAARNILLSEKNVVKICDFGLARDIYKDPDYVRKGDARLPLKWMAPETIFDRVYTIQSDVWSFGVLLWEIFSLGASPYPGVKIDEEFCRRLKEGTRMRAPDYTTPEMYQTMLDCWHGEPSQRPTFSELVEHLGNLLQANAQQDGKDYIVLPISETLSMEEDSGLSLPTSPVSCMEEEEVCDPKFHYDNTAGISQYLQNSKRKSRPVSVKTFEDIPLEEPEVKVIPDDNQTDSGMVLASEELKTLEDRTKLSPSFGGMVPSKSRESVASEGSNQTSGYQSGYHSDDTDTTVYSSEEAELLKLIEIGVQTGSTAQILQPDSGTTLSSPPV

MAP4K4 = MAP4K4 (Homo sapiens, UniProt O95819); assay: Z'-LYTE kinase selectivity; format: biochemical
MAPKAPK2 = MAPKAPK2 (Homo sapiens, UniProt P49137); assay: Z'-LYTE kinase selectivity; format: biochemical
Sequence of MAPKAPK2 (P49137 whole entry): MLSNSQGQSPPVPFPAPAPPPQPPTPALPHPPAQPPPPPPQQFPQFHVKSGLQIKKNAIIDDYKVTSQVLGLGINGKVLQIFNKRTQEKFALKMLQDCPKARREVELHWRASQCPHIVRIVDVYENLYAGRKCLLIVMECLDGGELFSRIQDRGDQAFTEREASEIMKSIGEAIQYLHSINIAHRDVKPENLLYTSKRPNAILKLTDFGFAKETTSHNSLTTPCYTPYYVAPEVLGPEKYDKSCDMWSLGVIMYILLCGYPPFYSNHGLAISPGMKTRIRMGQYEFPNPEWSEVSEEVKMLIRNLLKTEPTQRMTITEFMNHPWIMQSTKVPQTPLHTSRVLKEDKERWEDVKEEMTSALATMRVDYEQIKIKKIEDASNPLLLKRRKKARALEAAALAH

P38 alpha = P38 alpha (Homo sapiens, UniProt Q16539); assay: Z'-LYTE kinase selectivity; format: biochemical
Sequence of P38 alpha (Q16539 whole entry): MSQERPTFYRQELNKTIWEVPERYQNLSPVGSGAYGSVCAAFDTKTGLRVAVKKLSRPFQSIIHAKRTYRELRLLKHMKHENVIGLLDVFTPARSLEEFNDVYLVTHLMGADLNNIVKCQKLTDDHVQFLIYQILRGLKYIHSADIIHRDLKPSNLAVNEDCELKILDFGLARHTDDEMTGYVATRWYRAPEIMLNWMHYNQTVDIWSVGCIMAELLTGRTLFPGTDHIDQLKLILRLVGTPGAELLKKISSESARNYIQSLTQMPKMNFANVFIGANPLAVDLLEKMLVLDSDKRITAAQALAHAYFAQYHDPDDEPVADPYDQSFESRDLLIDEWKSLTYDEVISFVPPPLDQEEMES

PDK1 = PDK1 (Homo sapiens, UniProt O15530); assay: Z'-LYTE kinase selectivity; format: biochemical; conditions: read-out: IC50 PDK1
PKA = PKA (Homo sapiens, UniProt P17612); assay: Z'-LYTE kinase selectivity; format: biochemical
TAOK2 = TAOK2 (Homo sapiens, UniProt Q9UL54); assay: Z'-LYTE kinase selectivity; format: biochemical
TNIK = TNIK (Homo sapiens, UniProt Q9UKE5); assay: Z'-LYTE kinase selectivity; format: biochemical
Sequence of TNIK (Q9UKE5 whole entry): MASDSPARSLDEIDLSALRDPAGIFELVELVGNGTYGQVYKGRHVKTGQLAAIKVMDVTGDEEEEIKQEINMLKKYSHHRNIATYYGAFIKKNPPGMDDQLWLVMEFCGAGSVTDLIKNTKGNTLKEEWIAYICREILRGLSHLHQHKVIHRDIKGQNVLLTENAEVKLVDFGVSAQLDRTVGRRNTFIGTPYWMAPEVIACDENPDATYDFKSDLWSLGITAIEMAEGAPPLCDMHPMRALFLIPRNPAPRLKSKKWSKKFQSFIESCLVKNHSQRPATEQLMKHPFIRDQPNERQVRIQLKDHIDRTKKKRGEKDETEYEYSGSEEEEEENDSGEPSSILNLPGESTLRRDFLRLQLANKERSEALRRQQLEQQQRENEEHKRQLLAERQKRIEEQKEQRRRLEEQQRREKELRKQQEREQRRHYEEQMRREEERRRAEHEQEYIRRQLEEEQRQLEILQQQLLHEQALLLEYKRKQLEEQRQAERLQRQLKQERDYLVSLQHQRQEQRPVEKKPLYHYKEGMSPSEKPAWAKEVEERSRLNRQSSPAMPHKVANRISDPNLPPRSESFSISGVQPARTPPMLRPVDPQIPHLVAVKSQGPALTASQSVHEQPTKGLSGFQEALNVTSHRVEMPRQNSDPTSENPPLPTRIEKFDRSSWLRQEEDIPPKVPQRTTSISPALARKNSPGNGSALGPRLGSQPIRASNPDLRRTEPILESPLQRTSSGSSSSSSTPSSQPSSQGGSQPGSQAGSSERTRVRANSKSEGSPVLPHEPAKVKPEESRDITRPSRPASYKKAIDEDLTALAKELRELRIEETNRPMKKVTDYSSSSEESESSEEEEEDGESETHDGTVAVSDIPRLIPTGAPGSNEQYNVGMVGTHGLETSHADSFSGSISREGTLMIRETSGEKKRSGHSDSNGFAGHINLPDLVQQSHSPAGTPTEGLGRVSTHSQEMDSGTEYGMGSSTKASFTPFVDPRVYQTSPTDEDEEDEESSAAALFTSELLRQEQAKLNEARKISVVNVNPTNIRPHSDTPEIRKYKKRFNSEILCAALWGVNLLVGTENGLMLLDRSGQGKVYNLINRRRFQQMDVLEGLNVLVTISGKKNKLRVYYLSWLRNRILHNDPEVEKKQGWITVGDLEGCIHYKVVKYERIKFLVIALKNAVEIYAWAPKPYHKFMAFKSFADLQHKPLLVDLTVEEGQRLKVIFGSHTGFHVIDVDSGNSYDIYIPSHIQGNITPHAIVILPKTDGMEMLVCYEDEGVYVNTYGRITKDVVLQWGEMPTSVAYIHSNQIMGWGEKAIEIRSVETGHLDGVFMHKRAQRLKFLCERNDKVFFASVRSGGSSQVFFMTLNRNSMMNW

[1] = test system: Ba/F3 (EML4-ALK^C1156Y) cells; assay: Cell proliferation (CellTiter-Glo); format: cell-based; conditions: read-out: IC50 BaF3-EML4-ALK C1156Y
Protocol: (§1) Cell proliferation assay was performed using methods reported in the previous article. Cell proliferation was measured using the CellTiter-Glo® (CTG) Luminescent Cell Viability Assay (Promega, WI, USA). Cells were seeded in 96-well plates at 15,000 cells per well in detection medium containing 0.5% fetal bovine serum and placed in an incubator at 37℃ and 5% CO2 overnight. On the following day, iruplinalkib was serially diluted with DMSO, further diluted in assay medium, and added to the designated wells for serial dilution of iruplinalkib to the target gradient concentration.
(§2) Transfection was performed when cell confluent reached 70–90% in 12-well plates. Opti-MEM medium was used to dilute Lipofectamine 3000 reagent (ThermoFisher, MA, USA) and siRNA separately and mixed well. The mixture was added to the cells after incubation at room temperature for 15 min, then at 37℃ for 2–4 days.

[2] = test system: Ba/F3 (EML4-ALK^WT) cells; assay: Cell proliferation (CellTiter-Glo); format: cell-based; conditions: read-out: IC50 BaF3-EML4-ALK WT
Protocol: as §1, §2

[3] = test system: LU-01-0015 (HIP-ALK) patient derived lung-tumor xenografts; assay: LU-01-0015 patient-derived xenograft model (tumor volume, body weight); format: in vivo, BALB/c nude mice; conditions: for Tumor volume Mean: group mean; for Tumor volume: individual mouse, in mm³
Protocol: Female BALB/c nude mice (4–6 weeks old) were provided by Shanghai Sipple-Bikai Laboratory Animal Co., Ltd. and Beijing Vital River Laboratory Animal Technology Co., Ltd. The mice were housed in a specific pathogen-free environment under a 12 h light/dark cycle, and had free access to sterile animal feed and water.
PDX and CDX models were used for in vivo studies. Patient-derived tumors tissues were divided into about 30 mm^3 and transplanted into the right dorsal subcutis. Treatment began when the tumor size reached to 200 mm^3. The mice were randomly assignied into the corresponding dosing groups (9 mice in each group). Drugs were deliverd via daily oral for 4 weeks. Tumor size was measured periodically using a digital caliper (Cal Pro, Sylvac, Switzerland), and tumor volume was calculated as 0.5 × length × width^2. For more detailed information, please refer to Supplementary materials. All procedures and protocols of xenograft models were approved by the Institutional Animal Care and Use Committee of WuXi AppTec.
Patient-derived tumor tissue was segmented into small pieces of approximately 20–30 mm^3 and transplanted subcutaneously into the right back of mice. When the tumor volume reached 150-200 mm^3, the mice were randomly divided into corresponding groups (9 mice in each group, female). Administered by gavage once daily for 4 weeks.

[4] = 5 mg/kg PO QD×4 W, day 0 after administration
[5] = 5 mg/kg PO QD×4 W, day 7 after administration
[6] = 5 mg/kg PO QD×4 W, day 10 after administration
[7] = 5 mg/kg PO QD×4 W, day 14 after administration
[8] = 5 mg/kg PO QD×4 W, day 17 after administration
[9] = 5 mg/kg PO QD×4 W, day 21 after administration
[10] = 5 mg/kg PO QD×4 W, day 24 after administration
[11] = 5 mg/kg PO QD×4 W, day 27 after administration
[12] = 10 mg/kg PO QD×4 W, day 0 after administration
[13] = 10 mg/kg PO QD×4 W, day 3 after administration
[14] = 10 mg/kg PO QD×4 W, day 7 after administration
[15] = 10 mg/kg PO QD×4 W, day 10 after administration
[16] = 10 mg/kg PO QD×4 W, day 14 after administration
[17] = 10 mg/kg PO QD×4 W, day 17 after administration
[18] = 10 mg/kg PO QD×4 W, day 21 after administration
[19] = 10 mg/kg PO QD×4 W, day 24 after administration
[20] = 10 mg/kg PO QD×4 W, day 27 after administration

Sequence of INSR (P06213 28-1382): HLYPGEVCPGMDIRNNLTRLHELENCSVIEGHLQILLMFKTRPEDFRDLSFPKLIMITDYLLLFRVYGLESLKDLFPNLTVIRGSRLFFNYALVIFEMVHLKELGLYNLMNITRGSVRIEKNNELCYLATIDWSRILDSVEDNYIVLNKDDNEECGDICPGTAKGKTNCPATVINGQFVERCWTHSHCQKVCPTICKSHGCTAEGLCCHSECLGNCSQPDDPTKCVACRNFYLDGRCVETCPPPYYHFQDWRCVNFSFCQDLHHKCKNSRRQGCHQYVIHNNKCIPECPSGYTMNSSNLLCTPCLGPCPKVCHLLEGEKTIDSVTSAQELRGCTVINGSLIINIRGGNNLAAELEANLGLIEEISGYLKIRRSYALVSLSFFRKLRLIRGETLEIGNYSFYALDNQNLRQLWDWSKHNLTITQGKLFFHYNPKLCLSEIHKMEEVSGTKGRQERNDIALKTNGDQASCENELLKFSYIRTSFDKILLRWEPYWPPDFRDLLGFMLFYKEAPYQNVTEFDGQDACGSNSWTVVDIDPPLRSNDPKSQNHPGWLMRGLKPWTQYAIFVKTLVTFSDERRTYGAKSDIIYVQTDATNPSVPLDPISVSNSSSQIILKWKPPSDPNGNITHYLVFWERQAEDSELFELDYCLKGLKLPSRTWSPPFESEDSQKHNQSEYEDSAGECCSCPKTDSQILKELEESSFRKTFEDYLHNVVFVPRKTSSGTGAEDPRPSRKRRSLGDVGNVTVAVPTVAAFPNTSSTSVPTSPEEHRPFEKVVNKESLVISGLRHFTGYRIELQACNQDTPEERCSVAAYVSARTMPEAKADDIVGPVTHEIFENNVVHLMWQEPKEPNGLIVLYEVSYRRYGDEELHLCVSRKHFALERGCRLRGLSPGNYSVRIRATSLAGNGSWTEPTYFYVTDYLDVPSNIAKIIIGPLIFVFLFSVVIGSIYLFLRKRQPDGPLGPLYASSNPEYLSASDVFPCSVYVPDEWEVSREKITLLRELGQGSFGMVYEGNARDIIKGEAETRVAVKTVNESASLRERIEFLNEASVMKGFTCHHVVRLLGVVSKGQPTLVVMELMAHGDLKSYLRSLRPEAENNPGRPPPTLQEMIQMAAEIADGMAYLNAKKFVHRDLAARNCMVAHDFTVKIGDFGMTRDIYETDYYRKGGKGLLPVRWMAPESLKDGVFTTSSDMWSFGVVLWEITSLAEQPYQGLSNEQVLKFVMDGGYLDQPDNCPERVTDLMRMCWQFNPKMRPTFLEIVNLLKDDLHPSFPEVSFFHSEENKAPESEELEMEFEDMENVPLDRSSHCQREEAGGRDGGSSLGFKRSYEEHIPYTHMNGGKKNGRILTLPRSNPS

COc1cc(N2CCC(N3CCN(C)CC3)CC2)ccc1Nc1ncc(Cl)c(Nc2ccccc2P(C)(C)=O)n1 [Brigatinib, reference compound]
IC50 (EPHA2): > 10 µM | IC50 (INSR): 0.626 ± 0.304 µM | IC50 (KDR): 0.178 ± 0.052 µM | IC50 (MAP4K4): 1.68 ± 0.762 µM | IC50 (MAPKAPK2): > 10 µM | IC50 (P38 alpha): > 10 µM | IC50 (PDK1): > 10 µM | IC50 (PKA): > 10 µM | IC50 (TAOK2): 0.964 ± 0.048 µM | IC50 (TNIK): 2.37 ± 1.33 µM | IC50 [1]: 0.014 µM | IC50 [2]: 0.006 µM | Tumor volume Mean [3, 4]: 153 mm³ | Tumor volume [3, 4]: 189 and 117 and 124 | Tumor volume ([3]; 5 mg/kg PO QD×4 W, day 3 after administration): 172 and 123 and 114 | Tumor volume Mean [3, 5]: 146 mm³ | Tumor volume [3, 5]: 149 and 98 | Tumor volume Mean [3, 6]: 122 mm³ | Tumor volume [3, 6]: 128 and 67 | Tumor volume Mean [3, 7]: 123 mm³ | Tumor volume [3, 7]: 154 and 64 | Tumor volume Mean [3, 8]: 146 mm³ | Tumor volume [3, 8]: 177 and 96 | Tumor volume Mean [3, 9]: 162 mm³ | Tumor volume [3, 9]: 138 and 255 | Tumor volume Mean [3, 10]: 148 mm³ | Tumor volume [3, 10]: 122 and 117 | Tumor volume Mean [3, 11]: 157 mm³ | Tumor volume [3, 11]: 113 and 101 and 56 | Tumor volume Mean [3, 12]: 149 mm³ | Tumor volume [3, 12]: 229 and 201 and 134 and 173 and 152 and 164 and 80 and 99 and 111 | Tumor volume Mean [3, 13]: 141 mm³ | Tumor volume [3, 13]: 206 and 208 and 136 and 143 and 125 and 137 and 82 and 123 and 106 | Tumor volume Mean [3, 14]: 123 mm³ | Tumor volume [3, 14]: 195 and 180 and 121 and 110 and 74 and 78 and 152 and 89 | Tumor volume Mean [3, 15]: 114 mm³ | Tumor volume [3, 15]: 236 and 171 and 101 and 97 and 63 and 85 and 89 and 106 and 80 | Tumor volume Mean [3, 16]: 108 mm³ | Tumor volume [3, 16]: 204 and 172 and 98 and 118 and 60 and 84 and 74 and 89 and 71 | Tumor volume Mean [3, 17]: 133 mm³ | Tumor volume [3, 17]: 239 and 176 and 118 and 196 and 66 and 106 and 97 and 89 | Tumor volume Mean [3, 18]: 133 mm³ | Tumor volume [3, 18]: 247 and 182 and 156 and 187 and 61 and 96 and 111 and 68 and 85 | Tumor volume Mean [3, 19]: 136 mm³ | Tumor volume [3, 19]: 262 and 186 and 98 and 210 and 62 and 101 and 137 and 102 and 70 | Tumor volume Mean [3, 20]: 152 mm³ | Tumor volume [3, 20]: 332 and 197 and 131 and 249 and 47 and 95 and 163 and 85 and 70 | tumor growth inhibition ([3]; LU-01-0015 and NCI-H3122 xenograft models, all P < 0.05): able to inhibit tumor growth | effect on body weight ([3]; nude mouse xenograft models (LU-01-0015, NCI-H3122), all P ≥ 0.05): no effect
